Experiment in all cases: inhibition of tumour cell growth, NCI panel, 48 h
Test [1] deals with NCI-H522 lung.
The test system of test [2] is RPMI-8226 leukemia.
The test system of test [3] is OVCAR-4 ovarian.
Test [4] deals with NCI-H23 lung.
The subject of test [5] is DU-145 prostate.
Test [6] deals with UO-31 renal.
Test [7] deals with PC-3 prostate.
For test [8], the system named is CAKI-1 renal.
The test system of test [9] is DMS 273 small cell lung.
Test [10] concerns M19-MEL melanoma.

Each structure is given as a SMILES string.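 1) Cells in 96-well plates. 2) Compound, 48 h, 5 concentrations. 3) Linear interpolation between surrounding doses. 4) Unreached endpoint = highest concentration. GI50 marks 50% less growth. TGI marks complete inhibition of growth.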

In the case of `O=C1CCS/C(=N\S(=O)(=O)c2ccc(N3N=C4c5ccccc5CC4C3c3cccs3)cc2)N1C(=O)c1ccccc1` (stereo unspecified), the GI50 is 14.4 µM in test [1]; 5.86 µM in test [2]; over 100 µM in [3]; 17.2 µM in test [4]; 23.2 µM in test [5]; 30.7 µM in test [6]. The GI50 in [7] was 29.2 µM; in [8], 26.8 µM. Besides, the TGI in test [1] is 65.1 µM; in test [2] it was over 100 µM; in test [3] it was over 100 µM; in test [4] it was 41.5 µM; in test [5], over 100 µM; in test [6], over 100 µM. In addition, the values for the TGI in [7] and in test [8] were over 100 µM and 86.6 µM, respectively.

Regarding `OCc1ccc(N(CCN2CCCC2)Cc2ccc(F)cc2)cc1Cl`, the GI50 was 16.8 µM in test [1]; 18.5 µM in test [2]; 11.1 µM in test [3]; 32.4 µM in test [4]; 17.1 µM in test [5]; 13.8 µM in test [6]. For the same compound, the GI50 is 15.6 µM in test [7] and 4.15 µM in [8]. For the same compound, the TGI was 34.4 µM in [1]; 47.4 µM in test [2]; over 100 µM in test [3]; over 100 µM in test [4]; 39.7 µM in [5]; 31.2 µM in test [6]. Further, the TGI was determined as 37 µM in [7] and 19.4 µM in test [8].

On to `COc1cc2c(cc1OCCCCOc1ccc(-c3nc4ccccc4s3)cc1)N=C[C@@H]1CCCN1C2=O`, for which the GI50 in test [1] is 0.565 µM; in test [2], 0.337 µM; in test [3] it was 1.24 µM; in test [4], 1.15 µM; in test [5] it was 0.426 µM; in test [6], 0.581 µM. The GI50 in [7] was 0.63 µM; in test [8] it was 0.769 µM. The TGI in [1] was determined as 1.93 µM; in test [2], 1.42 µM; in [3], 9.02 µM; in [4], 3.56 µM; in [5] it was 2.05 µM; in test [6], 2.43 µM. The TGI in test [7] is 2.11 µM; in [8], 10.8 µM.

For the compound `C=C1C[C@@]2(C)C(CC[C@]3(C)C2CC=C2C4CC(C)(C)C[C@@H](OC(=O)/C(C)=C\C)[C@]4(C(=O)O)CC[C@]23C)C(C)(C)C1=O` (stereo partly specified), the GI50 is 2.76 µM in test [1]; 1.42 µM in [2]; 4.76 µM in test [3]; 2.87 µM in test [4]; 4.37 µM in [5]; 1.89 µM in test [6]. Further, the values for the GI50 in test [7] and in test [8] were 1.99 µM and 1.88 µM, respectively. The TGI in test [1] amounted to 10.1 µM; in [2] it was 5.69 µM; in test [3] it was 18.2 µM; in [4], 11.1 µM; in [5], 16 µM; in test [6] it was 3.92 µM. The TGI worked out at 5.94 µM in test [7] and 4.72 µM in test [8].

Regarding `CCOP(=O)(OCC)C1=NC=CC=CC1n1c(-c2ccccc2)nn(CC)c1=O` (stereo unspecified), the TGI in test [1], in test [2], in test [4], in test [9], in test [10] and in test [8] was over 100 µM throughout.

Regarding `CCCN(CCSSCCNc1nc(N(C)O)nc(N(C)O)n1)c1nc(N(C)O)nc(N(C)O)n1`, the GI50 was 92.1 µM in test [1]; 4.48 µM in [2]; 3.29 µM in test [3]; 18 µM in test [4]; 8.78 µM in test [5]; 5.19 µM in test [6]. Moreover, the GI50 in test [7] is 82.4 µM; in [8], 2.47 µM. For the same compound, the TGI in test [1], in test [2], in test [3], in [4], in [5] and in test [6] was over 100 µM in each case. The TGI in test [7] and in [8] was over 100 µM each time.

Regarding `CC(C)C(=O)/C=C/c1ccc(Cl)c(Cl)c1`, the TGI in test [1] was 35.1 µM; in test [2] it was 87 µM; in test [3], over 100 µM; in [4] it was 36.5 µM; in test [6], 27.2 µM; in [10], 32.3 µM.

`C=C1C(=O)O[C@H]2[C@H]1CC/C(Cn1cc(-c3cc(C)c(C)cc3C)nn1)=C\CC[C@@]1(C)O[C@@H]21`: the GI50 in test [1] was 0.282 µM; in test [2] it was 1.18 µM; in test [3], 0.701 µM; in test [4] it was 1.77 µM; in test [5] it was 1.35 µM; in test [6] it was 0.528 µM. The results for the GI50 in test [7] and in [8] were 1.47 µM and 1.08 µM, respectively. In addition, the TGI came out at 1.17 µM in test [1]; 4.11 µM in [2]; 2.12 µM in test [3]; 3.99 µM in test [4]; 2.63 µM in [5]; 1.89 µM in test [6]. In addition, the TGI in [7] was 3 µM; in test [8], 2.39 µM.

Turning to `CSc1ncnc2c1CCN2`, the GI50 in test [1] and in [4] was over 100 µM throughout. Moreover, the TGI in [4], in test [6] and in test [10] was over 100 µM throughout.

`N#CC1CC2(C(=O)C1=O)c1ccccc1-c1ccccc12` (stereo unspecified): the TGI in test [1], in test [3], in test [4], in test [9], in test [6] and in test [10] was over 100 µM throughout. The compound also registered a TGI in test [8] of over 100 µM.

Consider `O=C(NCc1ccncc1)C1COc2cc(-c3cc(=O)c4ccccc4o3)ccc2O1` (stereo unspecified), for which the TGI in test [1], in test [3], in test [4], in [6] and in test [10] was over 100 µM in each case.

Turning to `N#CC1C2CCC3(CC2CCN1C(=O)c1ccccc1)OCCO3` (stereo unspecified), the TGI in test [2], in test [3], in [4], in [9], in test [6] and in test [10] was over 100 µM each time.

For the origin of these results see PubChem BioAssay (NCI).
